Measured values from patent US20250095772A1, “METHOD FOR IMPROVING THROUGHPUT OF COMPOUND-PROTEIN INTERACTION EXPERIMENTS” (SOUTHERN UNIVERSITY OF SCIENCE AND TECHNOLOGY, priority 2022, published 2025).

Columns and labels:
[1] = tested on: K562 cell lysate; assay: Single temperature point TPP target identification, 25 drugs pooled into 14 mixture systems (Example 2); assay type: binding; settings: 25 compounds in 14 mixture systems (each in 4), remaining steps as Example 1 (40 μM, K562 cell lysate, 52° C., LASSO β threshold 0.1); — = no target identified
Protocol: In step S04: DMSO as a solvent was added to each mixture system in step S03 to enable a concentration of each drug to reach 40 μM, and then the single temperature point TPP method is applied to measure the interaction between each mixture system and the protein. The specific experimental steps are that: equal amounts of K562 cell lysate were mixed with a drug mixture system, incubated at room temperature for 10 minutes, then heated at 52° C. for 3 minutes, and then quickly cooled to 4° C. on a PCR machine. The samples were centrifuged at 21,000 rcf for 20 minutes at 4° C., and the supernatant was collected. According to the mass spectrometry-based proteomics quantification method, each sample was enzymatically digested and TMT labeled, and then the LC-MS mass spectrometry was used for measurement to obtain the content of protein. […] Therefore, if a protein can interact with the mixed system, then the content of protein measured by mass spectrometry will be higher, and vice versa.
(§1) In step S05: Nine measured values Yi obtained from the interaction between the nine mixture systems and the target protein are marked as response vectors Y; the response vectors Y were normalized so that the numerical values of the response vectors are between 0 and 1. The response vector Y and the permutation matrix S meet a relational expression of:
Where, λ is a penalty term, which is used to adjust a compression degree of β, in this embodiment, the value of λ is 0.1 and the threshold is 0.1.
It is assumed that the above twenty-five compounds to be tested are mixed into fourteen mixture systems: mixture system 1, mixture system 2, mixture system 3, . . . and mixture system 14. Each compound to be tested was included in four different mixture systems. That is, m=14, n=25, a=4. […] In FIG. 5, the black grid represents the numerical value of 1, and the white grid represents the numerical value of 0. […] The twenty-five compounds to be tested were mixed according to the finally obtained 14×25 optimized permutation matrix S shown in FIG. 5, to obtain fourteen mixture systems.

[2] = tested on: K562 cell lysate; assay: Single temperature point TPP target identification, 15 drugs pooled into 9 mixture systems (Example 1); assay type: binding; settings: 15 compounds in 9 mixture systems (each in 3), each drug 40 μM, heated at 52° C. for 3 minutes, LASSO β threshold 0.1, — = no target identified
From the text: In step S01: Fifteen drugs to be tested (i.e., the compounds to be tested) were given: Palbociclib, Panobinostat, Raltitrexed, Methotrexate, Vemurafenib, Fimepinostat, SCIO-469, SL-327, 5-Fluorouracil, Olaparib, Belumosudil, OTS964, Parthenolide, CCT137690, […], which are sequentially numbered as compound to be tested 1, compound to be tested 2, compound to be tested 3, . . . and compound to be tested 15. It is assumed here that the above fifteen compounds to be tested are mixed into nine mixture systems: mixture system 1, mixture system 2, mixture system 3, . . . and mixture system 9, and each compound to be tested was included in three different mixture systems, that is, m=9, n=15, a=3. The nine mixture systems are mapped into a 9x15 initial permutation matrix A of the compounds to be tested, and the initial permutation matrix A is randomly initialized so that the numerical values in the matrix A are random floating-point numbers between 0 and 1.
The initial permutation matrix A of the compounds to be tested was iteratively optimized through a genetic algorithm to minimize the value of the objective function L; the permutation matrix A is subjected to the binary conversion in step S02 when the value of the objective function L is the minimum to obtain the optimized permutation matrix S (as shown in FIG. 3), the optimized permutation matrix S is the final permutation matrix. […] In FIGS. 2 and 3, the black grid represents the numerical value 1, and the white grid represents the numerical value 0. During the iteration process, the value of the objective function L decreases to a constant value as the number of iterations increases, as shown in FIG. 4. The fifteen compounds to be tested were mixed according to the finally-obtained 9×15 optimized permutation matrix shown in FIG. 3, and nine mixture systems were obtained.
In step S04: DMSO as a solvent was added to each mixture system in step S03 to enable a concentration of each drug to reach 40 μM, and then the single temperature point TPP method is applied to measure the interaction between each mixture system and the protein. The specific experimental steps are that: equal amounts of K562 cell lysate were mixed with a drug mixture system, incubated at room temperature for 10 minutes, then heated at 52° C. for 3 minutes, and then quickly cooled to 4° C. on a PCR machine. The samples were centrifuged at 21,000 rcf for 20 minutes at 4° C., and the supernatant was collected. According to the mass spectrometry-based proteomics quantification method, each sample was enzymatically digested and TMT labeled, and then the LC-MS mass spectrometry was used for measurement to obtain the content of protein. Based on the principle of the TPP method, the thermal stability of the protein can be improved through a combination with compounds. Therefore, if a protein can interact with the mixed system, then the content of protein measured by mass spectrometry will be higher, and vice versa.
as §1
Where, Yi represents a response value of the ability of the mixture system identified as i among the nine mixture systems to interact with the target protein, and βj is a contribution of the compound to be tested identified as j in the mixture system identified as i to the response value of the mixture system identified as i, βj is a coefficient vector with a length n, and R is a residual vector with a length […].
the LASSO regression method is applied to obtain an optimal solution of β based on the following expression: […]

## COC(=O)N[C@@H](C)CNc1nccc(-c2cn(C(C)C)nc2-c2cc(Cl)cc(NS(C)(=O)=O)c2F)n1 [Encorafenib]
[1]
  Successfully Identified Target(s): BRAF

## COc1ccc(-c2nc(N3CCOCC3)c3sc(CN(C)c4ncc(C(=O)NO)cn4)cc3n2)cn1 [Fimepinostat]
[1]
  Successfully Identified Target(s): HDAC1
[2]
  Successfully Identified Target(s): HDAC1

## CN(Cc1cnc2nc(N)nc(N)c2n1)c1ccc(C(=O)N[C@@H](CCC(=O)O)C(=O)O)cc1 [Methotrexate]
[1]
  Successfully Identified Target(s): DHFR
[2]
  Successfully Identified Target(s): DHFR

## Cc1cc(CN2CCN(c3c(Br)cnc4nc(-c5ccc(N6CCN(C)CC6)cc5)[nH]c34)CC2)no1 [CCT137690]
[2]
  Successfully Identified Target(s): AURKA

## C[C@@H]1CN(Cc2ccc(F)cc2)[C@@H](C)CN1C(=O)c1cc2c(C(=O)C(=O)N(C)C)cn(C)c2cc1Cl [SCIO-469]
[1]
  Successfully Identified Target(s): MAPK14
[2]
  Successfully Identified Target(s): MAPK14

## CC(C)(C)Cn1c(N)nc2ccc(-c3[nH]c(C(C)(C)C)nc3-c3ccc(F)cc3)nc21 [Ralimetinib]
[1]
  Successfully Identified Target(s): MAPK14
[2]
  Successfully Identified Target(s): MAPK14

## O=C(c1cc(Cc2n[nH]c(=O)c3ccccc23)ccc1F)N1CCN(C(=O)C2CC2)CC1 [Olaparib]
[1]
  Successfully Identified Target(s): PARP1
[2]
  Successfully Identified Target(s): PARP1

## Cc1nc2ccc(CN(C)c3ccc(C(=O)N[C@@H](CCC(=O)O)C(=O)O)s3)cc2c(=O)[nH]1 [Raltitrexed]
[1]
  Successfully Identified Target(s): TYMS
[2]
  Successfully Identified Target(s): TYMS
